The record followed here is BindingDB's records for doi:10.1021/jm980094b (National Institute of Diabetes, 1998).

One may read the Ki as the equilibrium dissociation constant of an inhibitor or competing ligand from its target. A low value points to higher affinity.

Bounds are passed on as bounds.

The target of the assay is Adenosine receptor A2a (Rattus norvegicus, UniProt P30543). As to the kind of experiment: Binding affinity was determined in radioligand binding assay at rat striatal Adenosine A2A receptor vs [3H]-CGS- 21680.
Sequence of Adenosine receptor A2a (P30543 whole entry): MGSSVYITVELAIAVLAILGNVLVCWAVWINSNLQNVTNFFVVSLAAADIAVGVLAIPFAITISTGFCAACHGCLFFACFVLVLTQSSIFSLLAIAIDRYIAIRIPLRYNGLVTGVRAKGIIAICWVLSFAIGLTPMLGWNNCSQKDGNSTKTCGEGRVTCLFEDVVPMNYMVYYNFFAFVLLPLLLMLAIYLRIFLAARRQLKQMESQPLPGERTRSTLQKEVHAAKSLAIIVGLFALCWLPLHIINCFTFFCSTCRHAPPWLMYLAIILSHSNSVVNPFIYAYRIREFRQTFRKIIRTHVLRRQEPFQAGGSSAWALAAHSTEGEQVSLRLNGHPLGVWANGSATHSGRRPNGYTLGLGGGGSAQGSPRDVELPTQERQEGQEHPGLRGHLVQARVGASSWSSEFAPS

Consider `CCOC(=O)C1C(C)=NC(c2ccccc2)=C(C(=O)OCc2ccccc2)C1C#Cc1ccccc1` (stereo unspecified) [CAS_393594], for which the Ki is more than 100 nM.
